Measurements published in ChEMBL document CHEMBL3112450, “Synthesis and in vitro antitumor evaluation of primary amine substituted quinazoline linked benzimidazole” (Bioorg Med Chem Lett, 2014).

Legend:
Assay type in all cases: functional
[1] = Cytotoxicity against human EKVX cells assessed as cell growth at 10^-5 M after 48 hrs by SRB assay; conditions: read-out: Activity
MDA-MB-435 = experiment: Cytotoxicity against human MDA-MB-435 cells after 48 hrs by SRB assay; conditions: MDA-MB-435, 48 h
K562 [2] = experiment: Cytotoxicity against human K562 cells assessed as cell growth at 10^-4 M after 48 hrs by SRB assay; conditions: K562, 48 h, read-out: Activity
HCT-116 = experiment: Cytotoxicity against human HCT116 cells assessed as cell growth at 10^-7 M after 48 hrs by SRB assay; conditions: HCT-116, 48 h, read-out: Activity
[3] = Cytotoxicity against human OVCAR4 cells assessed as cell growth at 10^-8 M after 48 hrs by SRB assay; conditions: OVCAR-4, 48 h, read-out: Activity
DU-145 = experiment: Cytotoxicity against human DU145 cells after 48 hrs by SRB assay; conditions: DU-145, 48 h
HCC 2998 [4] = experiment: Cytotoxicity against human HCC2998 cells after 48 hrs by SRB assay; conditions: HCC 2998, 48 h
COLO 205 [5] = experiment: Cytotoxicity against human COLO205 cells assessed as cell growth at 10^-6 M after 48 hrs by SRB assay; conditions: COLO 205, 48 h, read-out: Activity
HOP-62 [6] = experiment: Cytotoxicity against human HOP62 cells assessed as cell growth at 10^-6 M after 48 hrs by SRB assay; conditions: HOP-62, 48 h, read-out: Activity
HCC 2998 [7] = experiment: Cytotoxicity against human HCC2998 cells assessed as cell growth at 10^-6 M after 48 hrs by SRB assay; conditions: HCC 2998, 48 h, read-out: Activity
SF-295 = experiment: Cytotoxicity against human SF295 cells after 48 hrs by SRB assay; conditions: SF-295, 48 h
LOX IMVI = experiment: Cytotoxicity against human LOXIMVI cells assessed as cell growth at 10^-4 M after 48 hrs by SRB assay; conditions: read-out: Activity
NCI-H522 [8] = experiment: Cytotoxicity against human NCI-H522 cells assessed as cell growth at 10^-8 M after 48 hrs by SRB assay; conditions: NCI-H522, 48 h, read-out: Activity
NCI-H522 [9] = experiment: Cytotoxicity against human NCI-H522 cells assessed as cell growth at 10^-4 M after 48 hrs by SRB assay; conditions: NCI-H522, 48 h, read-out: Activity
SK-OV-3 [10] = experiment: Cytotoxicity against human SKOV3 cells assessed as cell growth at 10^-6 M after 48 hrs by SRB assay; conditions: SK-OV-3, 48 h, read-out: Activity
HCC 2998 [11] = experiment: Cytotoxicity against human HCC2998 cells assessed as cell growth at 10^-7 M after 48 hrs by SRB assay; conditions: HCC 2998, 48 h, read-out: Activity
K562 [12] = experiment: Cytotoxicity against human K562 cells assessed as cell growth at 10^-7 M after 48 hrs by SRB assay; conditions: K562, 48 h, read-out: Activity
IGROV-1 = experiment: Cytotoxicity against human IGROV1 cells assessed as cell growth at 10^-6 M after 48 hrs by SRB assay; conditions: IGROV-1, 48 h, read-out: Activity
HT-29 = experiment: Cytotoxicity against human HT-29 cells after 48 hrs by SRB assay; conditions: HT-29, 48 h
CAKI-1 = experiment: Cytotoxicity against human Caki1 cells assessed as cell growth at 10^-4 M after 48 hrs by SRB assay; conditions: CAKI-1, 48 h, read-out: Activity
NCI-H322M = experiment: Cytotoxicity against human NCI-H322M cells assessed as cell growth at 10^-6 M after 48 hrs by SRB assay; conditions: read-out: Activity
[13] = Cytotoxicity against human OVCAR4 cells assessed as cell growth at 10^-4 M after 48 hrs by SRB assay; conditions: OVCAR-4, 48 h, read-out: Activity
Malme-3M = experiment: Cytotoxicity against human MALME-3M cells assessed as cell growth at 10^-7 M after 48 hrs by SRB assay; conditions: read-out: Activity
SK-MEL-28 = experiment: Cytotoxicity against human SK-MEL-28 cells assessed as cell growth at 10^-7 M after 48 hrs by SRB assay; conditions: SK-MEL-28, 48 h, read-out: Activity
BT-549 = experiment: Cytotoxicity against human BT549 cells assessed as cell growth at 10^-8 M after 48 hrs by SRB assay; conditions: BT-549, 48 h, read-out: Activity
T47D [14] = experiment: Cytotoxicity against human T47D cells assessed as cell growth at 10^-6 M after 48 hrs by SRB assay; conditions: read-out: Activity
KM12 = experiment: Cytotoxicity against human KM12 cells assessed as cell growth at 10^-4 M after 48 hrs by SRB assay; conditions: KM12, 48 h, read-out: Activity
UACC-62 [15] = experiment: Cytotoxicity against human UACC62 cells assessed as cell growth at 10^-8 M after 48 hrs by SRB assay; conditions: UACC-62, 48 h, read-out: Activity
[16] = Cytotoxicity against human OVCAR4 cells assessed as cell growth at 10^-7 M after 48 hrs by SRB assay; conditions: OVCAR-4, 48 h, read-out: Activity
HOP-62 [17] = experiment: Cytotoxicity against human HOP62 cells assessed as cell growth at 10^-8 M after 48 hrs by SRB assay; conditions: HOP-62, 48 h, read-out: Activity
SF-268 = experiment: Cytotoxicity against human SF268 cells assessed as cell growth at 10^-6 M after 48 hrs by SRB assay; conditions: SF-268, 48 h, read-out: Activity
SK-OV-3 [18] = experiment: Cytotoxicity against human SKOV3 cells assessed as cell growth at 10^-7 M after 48 hrs by SRB assay; conditions: SK-OV-3, 48 h, read-out: Activity
COLO 205 [19] = experiment: Cytotoxicity against human COLO205 cells assessed as cell growth at 10^-8 M after 48 hrs by SRB assay; conditions: COLO 205, 48 h, read-out: Activity
SK-MEL-5 = experiment: Cytotoxicity against human SK-MEL-5 cells assessed as cell growth at 10^-8 M after 48 hrs by SRB assay; conditions: SK-MEL-5, 48 h, read-out: Activity
UACC-62 [20] = experiment: Cytotoxicity against human UACC62 cells assessed as cell growth at 10^-4 M after 48 hrs by SRB assay; conditions: UACC-62, 48 h, read-out: Activity
T47D [21] = experiment: Cytotoxicity against human T47D cells assessed as cell growth at 10^-8 M after 48 hrs by SRB assay; conditions: read-out: Activity
M14 = experiment: Cytotoxicity against human M14 cells assessed as cell growth at 10^-8 M after 48 hrs by SRB assay; conditions: M14, 48 h, read-out: Activity
PC-3 = experiment: Cytotoxicity against human PC3 cells assessed as cell growth at 10^-4 M after 48 hrs by SRB assay; conditions: PC-3, 48 h, read-out: Activity
HOP-92 = experiment: Cytotoxicity against human HOP92 cells after 48 hrs by SRB assay; conditions: HOP-92, 48 h
786-0 = experiment: Cytotoxicity against human 786-0 cells after 48 hrs by SRB assay; conditions: 786-0, 48 h

## C=CCn1c(C)nc2ccc(Nc3nc(Nc4ncccn4)nc4ccccc34)cc21
[1]
  growth at 10 µM: 87.2%

## C=CCn1c(C)nc2ccc(Nc3nc(NCCO)nc4ccccc34)cc21
[1]
  growth at 10 µM: 95.5%

## C=CCn1c(C)nc2ccc(Nc3nc(Nc4ccc5nc(C)n(CC=C)c5c4)c4ccccc4n3)cc21
MDA-MB-435
  GI50: 1.73 µM
  TGI: 3.33 µM
K562 [2]
  growth at 100 µM: 1%
HCT-116
  growth at 0.1 µM: 99%
[3]
  growth at 0.01 µM: 99%
DU-145
  GI50: 1.85 µM
  LC50 (50% lethal concentration): 5.79 µM
  TGI: 3.27 µM
HCC 2998 [4]
  GI50: 1.72 µM
  LC50 (50% lethal concentration): 5.56 µM
  TGI: 3.09 µM
COLO 205 [5]
  growth at 1 µM: 78%
HOP-62 [6]
  growth at 1 µM: 90%
HCC 2998 [7]
  growth at 1 µM: 96%
SF-295
  GI50: 1.84 µM
  TGI: 3.53 µM
LOX IMVI
  growth at 100 µM: 7%
NCI-H522 [8]
  growth at 0.01 µM: 97%
NCI-H522 [9]
  growth at 100 µM: -15%
SK-OV-3 [10]
  growth at 1 µM: 96%
HCC 2998 [11]
  growth at 0.1 µM: 101%
K562 [12]
  growth at 0.1 µM: 94%
IGROV-1
  growth at 1 µM: 99%
HT-29
  GI50: 1.85 µM
  TGI: 3.39 µM
CAKI-1
  growth at 100 µM: -28%
NCI-H322M
  growth at 1 µM: 92%
[13]
  growth at 100 µM: -43%
Malme-3M
  growth at 0.1 µM: 92%
SK-MEL-28
  growth at 0.1 µM: 95%
BT-549
  growth at 0.01 µM: 99%
T47D [14]
  growth at 1 µM: 80%
KM12
  growth at 100 µM: -31%
UACC-62 [15]
  growth at 0.01 µM: 96%
[16]
  growth at 0.1 µM: 95%
HOP-62 [17]
  growth at 0.01 µM: 99%
SF-268
  growth at 1 µM: 79%
SK-OV-3 [18]
  growth at 0.1 µM: 95%
COLO 205 [19]
  growth at 0.01 µM: 105%
SK-MEL-5
  growth at 0.01 µM: 94%
UACC-62 [20]
  growth at 100 µM: -65%
T47D [21]
  growth at 0.01 µM: 96%
M14
  growth at 0.01 µM: 96%
PC-3
  growth at 100 µM: -46%
HOP-92
  GI50: 1.37 µM
  TGI: 2.93 µM
786-0
  GI50: 1.73 µM
  TGI: 3.36 µM
